Measured values: patent EP2272817A1, “PAI-1 INHIBITOR” (Institute of Medicinal Molecular Design, Inc., priority 2008, dated 2009)

Target: recombinant human PAI-1 (Homo sapiens, UniProt P05121)
Assay: Test Example 2: Human PAI-1 Inhibitory Activity (pH 7.4 HEPES buffer, 10 minutes incubation with two-chain tPA)
Type: biochemical
Parameters: purchased Molecular Innovations, Inc
Conditions: read-out: Inhibition Rate of PAI-1 Activity (%)
Description: 0.1 M HEPES, 0.1 M NaCl. 1 mM EDTA. 0.1 % Polyethylene glycol 8,000 (Hampton Research Corporation),
2 mM Dimethyldecylphoshine oxide [Apo-10] (Fluka Corporation)

Chain of recombinant human PAI-1 (P05121 24-402): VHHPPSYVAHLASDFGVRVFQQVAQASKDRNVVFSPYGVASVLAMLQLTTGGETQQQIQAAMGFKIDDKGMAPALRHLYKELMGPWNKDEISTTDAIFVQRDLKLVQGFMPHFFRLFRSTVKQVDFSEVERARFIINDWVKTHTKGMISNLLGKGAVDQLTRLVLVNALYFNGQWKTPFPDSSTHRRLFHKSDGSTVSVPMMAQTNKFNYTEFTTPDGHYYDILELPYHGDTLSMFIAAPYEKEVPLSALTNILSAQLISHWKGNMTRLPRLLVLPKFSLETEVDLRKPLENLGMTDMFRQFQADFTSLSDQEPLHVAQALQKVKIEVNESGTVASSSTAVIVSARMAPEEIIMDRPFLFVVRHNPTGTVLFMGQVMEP

Compound	inhibition at 1 µM	inhibition at 3 µM	inhibition at 10 µM	inhibition at 25 µM	inhibition at 0.1 µM	inhibition at 0.3 µM
CC(C)(C)c1ccc(COc2ccc(N3CCN(c4ccc(OC(F)(F)F)cc4)CC3)cc2/C=C/C(=O)O)cc1 [Compound 418]	73%	95%	94%	90%	–	–
CC(C)(C)c1ccc(COc2ccc(N3CCN(c4ccc(OC(F)(F)F)cc4)CC3)cc2CCC(=O)O)cc1 [Compound 419]	41%	93%	98%	> 99%	–	–
CC(C)(C)c1ccc(COc2ccc(-c3ccc(OC(F)(F)F)cc3)cc2C(=O)O)cc1 [Compound 421]	14%	81%	–	–	0%	3%
CCCCC(Nc1cc(-c2ccc(OC(F)(F)F)cc2)ccc1Oc1ccc(C(C)(C)C)cc1)C(=O)O (stereo not drawn) [Compound 423]	74%	96%	–	–	1%	1%
CCCCCOc1cc(-c2ccc(OC(F)(F)F)cc2)cc(OCCCCC)c1OCC(=O)O [Compound 424]	38%	> 99%	–	–	0%	4%
CCCCC(Oc1cc(Oc2ccc(C(C)(C)C)cc2)cc(-c2ccc(OC(F)(F)F)cc2)c1)C(=O)O (stereo not drawn) [Compound 426]	95%	97%	–	–	10%	29%
CC(C)(C)c1ccc(Oc2cc(OCC(=O)O)cc(-c3ccc(OC(F)(F)F)cc3)c2)cc1 [Compound 427]	62%	97%	–	–	1%	27%
CC(C)(C)c1ccc(Oc2cc(-c3ccc(OC(F)(F)F)cc3)ccc2C(=O)O)cc1 [Compound 434]	66%	> 99%	–	–	14%	8%
CCCN(CC(=O)O)c1cc(-c2ccc(OC(F)(F)F)cc2)ccc1Oc1ccc(C(C)(C)C)cc1 [Compound 435]	81%	98%	–	–	12%	29%
CC(C)(C)c1cccc(Oc2cc(-c3ccc(OC(F)(F)F)cc3)ccc2OCC(=O)O)c1 [Compound 436]	63%	> 99%	–	–	3%	19%
CC(C)(C)c1cccc(Oc2ccc(-c3ccc(OC(F)(F)F)cc3)cc2/C=C/C(=O)O)c1 [Compound 437]	67%	98%	–	–	0%	12%
CC(C)(C)c1cccc(Oc2ccc(-c3ccc(OC(F)(F)F)cc3)cc2CCC(=O)O)c1 [Compound 438]	50%	> 99%	–	–	13%	11%
CC(C)(C)c1cccc(Oc2ccc(-c3ccc(OC(F)(F)F)cc3)cc2OCC(=O)O)c1 [Compound 439]	44%	> 99%	–	–	12%	9%
CCCCCOc1ccc(-c2ccc(OCC(=O)O)c(Oc3ccc(C(C)(C)C)cc3)c2)cc1 [Compound 440]	96%	> 99%	–	–	0%	3%
CC(C)c1ccc(-c2ccc(OCC(=O)O)c(Oc3ccc(C(C)(C)C)cc3)c2)cc1 [Compound 441]	89%	98%	–	–	9%	29%
CC(C)(C)c1ccc(Oc2cc(-c3ccc(OC(F)(F)F)cc3)ccc2NCC(=O)O)cc1 [Compound 442]	83%	> 99%	–	–	1%	4%
CSc1ccc(-c2ccc(OCC(=O)O)c(Oc3ccc(C(C)(C)C)cc3)c2)cc1 [Compound 448]	39%	> 99%	–	–	4%	11%
CC(C)(C)c1ccc(Oc2cc(-c3ccc(OC(F)(F)F)cc3)ccc2/C=C\C(=O)O)cc1 [Compound 450]	58%	98%	–	–	9%	11%
CCCCCOc1ccc(-c2ccc(Oc3ccc(C(C)(C)C)cc3)c(OCC(=O)O)c2)cc1 [Compound 454]	> 99%	> 99%	–	–	11%	17%
CC(C)(C)c1ccc(Oc2cc(-c3cc(Cl)ccc3Cl)ccc2OCC(=O)O)cc1 [Compound 455]	93%	99%	–	–	9%	20%
CC(C)(C)c1ccc(Oc2cc(-c3ccccc3OC(F)(F)F)ccc2OCC(=O)O)cc1 [Compound 456]	70%	98%	–	–	7%	13%
CC(C)(C)c1ccc(Oc2cc(-c3ccc(Cl)cc3)ccc2OCC(=O)O)cc1 [Compound 457]	63%	> 99%	–	–	21%	18%
CC(C)(C)c1ccc(Oc2cc(-c3ccc(F)cc3)ccc2OCC(=O)O)cc1 [Compound 459]	42%	86%	–	–	26%	31%
CC(C)(C)c1ccc(Sc2cc(-c3ccc(OC(F)(F)F)cc3)ccc2/C=C/C(=O)O)cc1 [Compound 462]	97%	95%	–	–	37%	94%

The next lines start with the values.

inhibition at 1 µM	inhibition at 3 µM	inhibition at 10 µM	inhibition at 25 µM	inhibition at 0.1 µM	inhibition at 0.3 µM	Compound
14%	41%	> 99%	98%	–	–	CCCCOc1ccc(-c2ccc(OC(F)(F)F)cc2)cc1CCC(=O)O [Compound 407]
41%	98%	> 99%	> 99%	–	–	CC(C)(C)c1ccc(COc2ccc(NS(=O)(=O)c3ccc(OC(F)(F)F)cc3)cc2CCC(=O)O)cc1 [Compound 415]
26%	54%	> 99%	> 99%	–	–	CN(C(=O)c1ccc(OC(F)(F)F)cc1)c1ccc(OCc2ccc(C(C)(C)C)cc2)c(CCC(=O)O)c1 [Compound 416]
72%	> 99%	–	–	12%	24%	CCCCC(CC(=O)O)c1cc(-c2ccc(OC(F)(F)F)cc2)ccc1Oc1ccc(C(C)(C)C)cc1 (stereo not drawn) [Compound 422]
> 99%	–	–	–	17%	54%	CCCCCCCOc1cc(-c2ccc(OC(F)(F)F)cc2)cc(OCCCCCCC)c1OCC(=O)O [Compound 425]
92%	94%	–	–	18%	36%	CCCCN(CC(=O)O)c1cc(-c2ccc(OC(F)(F)F)cc2)ccc1Oc1ccc(C(C)(C)C)cc1 [Compound 428]
93%	95%	–	–	7%	9%	CCCCCCOc1ccc(-c2ccc(OC(F)(F)F)cc2)cc1OC(CCCCCC)C(=O)O (stereo not drawn) [Compound 429]
97%	> 99%	–	–	1%	15%	CCCCCCOc1cc(-c2ccc(OC(F)(F)F)cc2)ccc1OC(CCCCCC)C(=O)O (stereo not drawn) [Compound 430]
77%	> 99%	–	–	0%	0%	CC(C)(C)c1ccc(Oc2ccc(Nc3ccc(OC(F)(F)F)cc3)cc2/C=C/C(=O)O)cc1 [Compound 431]
25%	97%	–	–	4%	0%	CC(C)(C)c1ccc(Oc2ccc(Nc3ccc(OC(F)(F)F)cc3)cc2CCC(=O)O)cc1 [Compound 432]
41%	98%	–	–	13%	6%	CCCCN(CC(=O)O)c1cc(-c2ccc(OC(F)(F)F)cc2)ccc1OCCCCc1ccccc1 [Compound 433]
76%	> 99%	–	–	7%	8%	CCCCc1ccc(-c2ccc(OCC(=O)O)c(Oc3ccc(C(C)(C)C)cc3)c2)cc1 [Compound 443]
11%	96%	–	–	0%	0%	Cc1ccc(-c2ccc(OCC(=O)O)c(Oc3ccc(C(C)(C)C)cc3)c2)cc1 [Compound 444]
12%	50%	–	–	0%	1%	COc1ccc(-c2ccc(OCC(=O)O)c(Oc3ccc(C(C)(C)C)cc3)c2)cc1 [Compound 445]
84%	> 99%	–	–	3%	13%	CC(C)(C)c1ccc(Oc2cc(-c3ccc(C(C)(C)C)cc3)ccc2OCC(=O)O)cc1 [Compound 446]
89%	> 99%	–	–	4%	11%	CCC(CC)Oc1ccc(-c2ccc(OCC(=O)O)c(Oc3ccc(C(C)(C)C)cc3)c2)cc1 [Compound 447]
96%	> 99%	–	–	4%	15%	CC(C)(C)c1ccc(Oc2ccc(-c3ccc(C(C)(C)C)cc3)cc2OCC(=O)O)cc1 [Compound 453]
63%	> 99%	–	–	1%	8%	CC(C)Oc1ccc(-c2ccc(OCC(=O)O)c(Oc3ccc(C(C)(C)C)cc3)c2)cc1 [Compound 460]
95%	98%	–	–	1%	26%	CCCCOc1ccc(Oc2cc(-c3ccc(OC(F)(F)F)cc3)ccc2CCC(=O)O)cc1 [Compound 461]
